Data: ChEMBL document CHEMBL1124198, “Potential inhibitors of S-adenosylmethionine-dependent methyltransferases. 11. Molecular dissections of neplanocin A as potential inhibitors of S-adenosylhomocysteine hydrolase” (J Med Chem, 1988)

What was measured:
Adenosylhomocysteinase [1] = target: T1, Adenosylhomocysteinase (Homo sapiens, UniProt P23526)
Vaccinia virus = settings: l929
Adenosylhomocysteinase [2] = target: T1, Adenosylhomocysteinase; remark: listed apart in the source
Adenosylhomocysteinase [3] = target: Adenosylhomocysteinase (Mus musculus, UniProt P50247); assay: biochemical
Sequence of Adenosylhomocysteinase (Mus musculus, UniProt P50247) (P50247 whole entry): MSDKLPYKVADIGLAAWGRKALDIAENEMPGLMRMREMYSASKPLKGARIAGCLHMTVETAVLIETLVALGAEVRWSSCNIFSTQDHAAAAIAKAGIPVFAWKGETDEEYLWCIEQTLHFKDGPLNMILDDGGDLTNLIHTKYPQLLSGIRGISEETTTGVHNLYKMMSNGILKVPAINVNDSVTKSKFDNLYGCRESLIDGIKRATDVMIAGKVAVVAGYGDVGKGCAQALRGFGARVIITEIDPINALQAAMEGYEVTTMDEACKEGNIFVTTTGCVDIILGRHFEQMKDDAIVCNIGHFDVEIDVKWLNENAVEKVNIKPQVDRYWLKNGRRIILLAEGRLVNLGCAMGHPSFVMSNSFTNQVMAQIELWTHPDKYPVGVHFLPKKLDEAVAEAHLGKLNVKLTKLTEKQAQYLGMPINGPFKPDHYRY

T1 sequence (P23526 whole entry): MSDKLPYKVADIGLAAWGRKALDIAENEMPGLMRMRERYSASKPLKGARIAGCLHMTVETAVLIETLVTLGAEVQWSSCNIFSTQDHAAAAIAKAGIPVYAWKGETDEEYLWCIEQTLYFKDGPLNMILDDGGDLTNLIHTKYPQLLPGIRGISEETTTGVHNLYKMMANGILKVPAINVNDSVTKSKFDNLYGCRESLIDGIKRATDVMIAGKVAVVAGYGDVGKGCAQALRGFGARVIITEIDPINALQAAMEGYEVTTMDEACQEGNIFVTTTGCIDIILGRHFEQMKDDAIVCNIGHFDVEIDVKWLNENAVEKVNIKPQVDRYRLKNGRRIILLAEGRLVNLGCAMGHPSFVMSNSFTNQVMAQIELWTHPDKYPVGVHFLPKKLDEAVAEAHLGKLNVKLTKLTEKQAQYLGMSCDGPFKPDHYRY

In the case of `Nc1ncnc2c1ncn2C/C=C(/CO)[C@@H](O)CO.Nc1ncnc2c1ncn2C/C=C(\CO)[C@@H](O)CO`, the IC50 (Adenosylhomocysteinase [1]) is reported as “Not Active” and the IC50 (Vaccinia virus) is reported as 170 µM.
In the case of `C/C(=C\Cn1cnc2c(N)ncnc21)CO`, the IC50 (Adenosylhomocysteinase [1]) is reported as “Not Active” and the IC50 (Vaccinia virus) is reported as 300 µM.
For `Nc1ncnc2c1ncn2C/C=C/C(O)CO` (configuration not stated), the Ki (Adenosylhomocysteinase [2]) was “Not Active” and the IC50 (Vaccinia virus) was 250 µM.
For `Nc1nccc2c1ncn2C/C=C\[C@@H](O)CO`, the IC50 (Adenosylhomocysteinase [3]) was 61 µM, the IC50 (Adenosylhomocysteinase [1]) was “Not Active” and the IC50 (Vaccinia virus) was 70 µM.
`CC(C)=CCn1cnc2c(N)ncnc21` was tested, and the Ki (Adenosylhomocysteinase [2]) was “Not Active” and the IC50 (Vaccinia virus) was 60 µM.
`C/C(=C/Cn1cnc2c(N)ncnc21)CO` was tested, and the IC50 (Adenosylhomocysteinase [3]) was 200 µM, the IC50 (Adenosylhomocysteinase [1]) was “Not Active” and the IC50 (Vaccinia virus) was 220 µM.
In the case of `Nc1ncnc2c1ncn2C/C=C\[C@@H](O)CO`, the IC50 (Adenosylhomocysteinase [3]) is reported as 100 µM, the IC50 (Adenosylhomocysteinase [1]) is reported as “Not Active” and the IC50 (Vaccinia virus) is reported as 100 µM.
In the case of `Nc1ncnc2c1ncn2C/C=C\CO`, the IC50 (Adenosylhomocysteinase [3]) is reported as 145 µM, the IC50 (Adenosylhomocysteinase [1]) is reported as “Not Active” and the IC50 (Vaccinia virus) is reported as 108 µM.
In the case of `Nc1ncnc2c1ncn2CC#CCO`, the Ki (Adenosylhomocysteinase [2]) is reported as “Not Active” and the IC50 (Vaccinia virus) is reported as > 320 µM.
For `Nc1nccc2c1ncn2CC#CCO`, the IC50 (Adenosylhomocysteinase [3]) was 200 µM, the IC50 (Adenosylhomocysteinase [1]) was “Not Active” and the IC50 (Vaccinia virus) was 300 µM.
In the case of `Nc1nccc2c1ncn2C/C=C\CO`, the IC50 (Adenosylhomocysteinase [3]) is reported as 200 µM, the IC50 (Adenosylhomocysteinase [1]) is reported as “Not Active” and the IC50 (Vaccinia virus) is reported as 300 µM.
`Nc1ncnc2c1ncn2CC=C(CO)CO` was tested, and the IC50 (Adenosylhomocysteinase [3]) was 65 µM, the IC50 (Adenosylhomocysteinase [1]) was “Not Active” and the IC50 (Vaccinia virus) was 700 µM.
In the case of `Nc1ncnc2c1ncn2C/C=C/CO`, the IC50 (Adenosylhomocysteinase [3]) is reported as 230 µM, the IC50 (Adenosylhomocysteinase [1]) is reported as “Not Active” and the IC50 (Vaccinia virus) is reported as 109 µM.
`Nc1nccc2c1ncn2C/C=C/CO` was tested, and the Ki (Adenosylhomocysteinase [2]) was “Not Active” and the IC50 (Vaccinia virus) was 40 µM.
For `Nc1nccc2c1ncn2CC=C(CO)CO`, the IC50 (Adenosylhomocysteinase [3]) was 110 µM, the IC50 (Adenosylhomocysteinase [1]) was “Not Active” and the IC50 (Vaccinia virus) was 500 µM.
With `Nc1ncnc2c1ncn2[C@@H]1C=C(CO)[C@@H](O)[C@H]1O` [NEOPLANOCIN A] the IC50 (Adenosylhomocysteinase [3]) was 0.05 µM, the IC50 (Adenosylhomocysteinase [1]) was “Not Active” and the IC50 (Vaccinia virus) was 0.08 µM.
